Source: article PMC12494099, “Discovery and Characterization of Novel IKZF1/3 Glue Degraders against Multiple Hematological Cancer Cell Lines” (Oncology Research, 2025)

Experiments:
Type in all cases: cell-based
endogenous GSPT1 = biological target: T1, endogenous GSPT1 (Homo sapiens, UniProt P15170); test: Immunoblot analysis of endogenous protein; settings: both NCI-H929 and MV-4-11 cells, up to 10 μM, 24 h
T1 construct: endogenous in cells; host or cells: NCI-H929 and MV-4-11
Procedure: (§1) Cells (NCI-H929 and MV-4-11) were plated into 6-well plates. They were then treated with different concentrations (0, 0.01, 0.1, 1, 10 μM) of the compounds (MGD-A7, MGD-C9) or the designated time periods. Afterward, the cells were washed with phosphate-buffered saline (PBS, pH = 7.2–7.4, 1×). Next, they were lysed using RIPA buffer (#R0278-500ML, Sigma-Aldrich, MO, USA), and the cell lysates were precisely measured. Following this, the total protein lysates underwent 10% sodium dodecyl sulfate-polyacrylamide gel electrophoresis (SDS-PAGE). This method efficiently separated the proteins based on their molecular weights. Subsequently, the separated proteins were transferred onto a nitrocellulose membrane (#HATF00010, […], Madison, WI, USA). The membranes were then successively incubated with the indicated primary antibodies. These antibodies were diluted in 5% bovine serum albumin (BSA) in Tris-buffered saline with Tween 20 (TBST, #TF103; Epizyme, Shanghai, China). The incubation was conducted overnight at 4°C with gentle agitation. The secondary antibodies were also diluted in 5% BSA in TBST (#TF103; Epizyme, Shanghai, China). […] Finally, after thorough washing with TBST, the membranes were developed using an enhanced chemiluminescence (ECL) substrate (#WBULS0100, Sigma-Aldrich). The chemiluminescent signal was detected, and membrane images were captured with an Imaging system (Bio-Rad, Hercules, CA, USA). ImageJ analysis software (V1.8.0.112, National Institutes of Health, NIH, Bethesda, MD, USA) was employed to analyze the intensity of protein bands, aiming to quantify the relative expression levels of the target proteins. The half-maximal degradation concentration (DC50) value, which indicates the concentrations of test compounds showing 50% protein degradation efficacy, was calculated using GraphPad Prism 8.0.

endogenous IKZF3 = biological target: T2, endogenous IKZF3 (Homo sapiens, UniProt Q96SW2+Q9UKT9); test: Immunoblot analysis of endogenous protein; settings: both NCI-H929 and MV-4-11 cells, 24 h, greater than pomalidomide
T2 construct: endogenous in cells; host or cells: NCI-H929 and MV-4-11
Procedure: as §1

endogenous IKZF1 = biological target: T3, endogenous IKZF1 (Homo sapiens, UniProt Q13422+Q96SW2); test: Immunoblot analysis of endogenous protein; settings: both NCI-H929 and MV-4-11 cells, 24 h, greater than pomalidomide
T3 construct: endogenous in cells; host or cells: NCI-H929 and MV-4-11
Procedure: as §1

endogenous CK1α = biological target: T4, endogenous CK1α (Homo sapiens, UniProt P48729); test: Immunoblot analysis of endogenous protein; settings: both NCI-H929 and MV-4-11 cells, up to 10 μM, 24 h
T4 construct: endogenous in cells; host or cells: NCI-H929 and MV-4-11
Procedure: as §1

GSPT1-HiBiT = biological target: T5, GSPT1-HiBiT (Homo sapiens, UniProt P15170); test: Quantitative degradation assay using the HiBiT system (HEK293T); settings: increased dosing to 10 μM, 24 h
T5 construct: expressed in transfected cells; host or cells: HEK293T
Procedure: (§2) An in vitro quantitative degradation assay utilizing the HiBiT system was carried out as previously described. To evaluate the degradation of IKZF1, IKZF2, and IKZF3 proteins, HEK293T cell lines stably expressing IKZF1-, IKZF2-, IKZF3-, GSPT1- or CK1α-HiBiT were cultured in 96-well plates at 12,000 cells per well. The cells were treated with different concentrations of the test compounds (MGD-A7 and MGD-C9) with concentrations of 0, 0.01, 0.033, 0.1, 0.33, 1, 3.3, 10 and 33 μM for the specified time intervals. After the treatment, cell lysis was carried out using the Nano-Glo HiBiT Lytic Detection System (#N3040, Promega). All lysis operations were strictly carried out according to the manufacturer’s specific protocol. Then, the SpectraMax iD3 instrument (Molecular Devices, San Jose, CA, USA) was used to detect the luminescent signals released by the HiBiT-tagged neosubstrates.

IKZF2-HiBiT = biological target: T6, IKZF2-HiBiT (Homo sapiens, UniProt Q9UKS7); test: as above; settings: dose response 24 h and time course 1 µM
T6 construct: expressed in transfected cells; host or cells: HEK293T
Procedure: as §2

CK1α-HiBiT = biological target: T7, CK1α-HiBiT (Homo sapiens, UniProt P48729); test: as above; settings: increased dosing to 10 μM, 24 h
T7 construct: expressed in transfected cells; host or cells: HEK293T
Procedure: as §2

T7 sequence (Q96SW2 whole entry partner): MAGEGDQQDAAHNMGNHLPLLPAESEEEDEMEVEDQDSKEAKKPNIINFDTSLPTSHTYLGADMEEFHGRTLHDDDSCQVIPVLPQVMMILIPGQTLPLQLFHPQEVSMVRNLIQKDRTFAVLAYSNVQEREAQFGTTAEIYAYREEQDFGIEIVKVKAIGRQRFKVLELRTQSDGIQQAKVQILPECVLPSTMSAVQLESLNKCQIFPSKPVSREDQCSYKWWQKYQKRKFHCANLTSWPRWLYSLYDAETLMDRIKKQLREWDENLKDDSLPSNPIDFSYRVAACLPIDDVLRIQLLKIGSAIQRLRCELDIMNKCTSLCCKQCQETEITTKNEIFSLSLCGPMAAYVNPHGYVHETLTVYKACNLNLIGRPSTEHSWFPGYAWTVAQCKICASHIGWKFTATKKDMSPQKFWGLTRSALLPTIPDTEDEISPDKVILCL
T7 sequence (Q16531 whole entry partner): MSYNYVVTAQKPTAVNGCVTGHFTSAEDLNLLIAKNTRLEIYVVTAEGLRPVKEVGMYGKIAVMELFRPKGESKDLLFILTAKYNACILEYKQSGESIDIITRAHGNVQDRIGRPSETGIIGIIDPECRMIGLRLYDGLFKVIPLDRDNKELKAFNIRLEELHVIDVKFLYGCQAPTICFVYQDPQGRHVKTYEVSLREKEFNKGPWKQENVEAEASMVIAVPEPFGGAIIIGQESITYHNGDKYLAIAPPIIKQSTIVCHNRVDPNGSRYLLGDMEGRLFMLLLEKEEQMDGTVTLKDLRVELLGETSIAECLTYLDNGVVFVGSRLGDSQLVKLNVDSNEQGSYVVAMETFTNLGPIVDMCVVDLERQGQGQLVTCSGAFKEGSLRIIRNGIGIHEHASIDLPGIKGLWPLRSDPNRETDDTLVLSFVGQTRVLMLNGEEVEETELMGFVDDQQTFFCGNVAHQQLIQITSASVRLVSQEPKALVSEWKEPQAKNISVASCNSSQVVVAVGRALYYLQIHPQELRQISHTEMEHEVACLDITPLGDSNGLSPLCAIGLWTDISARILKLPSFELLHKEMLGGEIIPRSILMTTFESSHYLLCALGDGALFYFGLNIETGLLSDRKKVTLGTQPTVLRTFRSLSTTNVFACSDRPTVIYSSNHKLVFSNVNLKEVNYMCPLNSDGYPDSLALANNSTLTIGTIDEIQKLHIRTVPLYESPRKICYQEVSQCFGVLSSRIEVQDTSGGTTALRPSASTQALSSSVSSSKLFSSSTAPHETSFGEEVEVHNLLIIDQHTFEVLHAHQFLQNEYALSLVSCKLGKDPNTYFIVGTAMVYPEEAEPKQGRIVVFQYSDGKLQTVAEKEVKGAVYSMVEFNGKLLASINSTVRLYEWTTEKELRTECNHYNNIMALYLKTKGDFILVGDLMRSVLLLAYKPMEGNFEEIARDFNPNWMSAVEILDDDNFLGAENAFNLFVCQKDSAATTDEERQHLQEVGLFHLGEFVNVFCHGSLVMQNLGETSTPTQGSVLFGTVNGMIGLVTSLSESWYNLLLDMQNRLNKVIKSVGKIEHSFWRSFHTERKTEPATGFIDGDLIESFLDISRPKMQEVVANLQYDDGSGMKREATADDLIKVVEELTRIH
T7 sequence (P48729 whole entry): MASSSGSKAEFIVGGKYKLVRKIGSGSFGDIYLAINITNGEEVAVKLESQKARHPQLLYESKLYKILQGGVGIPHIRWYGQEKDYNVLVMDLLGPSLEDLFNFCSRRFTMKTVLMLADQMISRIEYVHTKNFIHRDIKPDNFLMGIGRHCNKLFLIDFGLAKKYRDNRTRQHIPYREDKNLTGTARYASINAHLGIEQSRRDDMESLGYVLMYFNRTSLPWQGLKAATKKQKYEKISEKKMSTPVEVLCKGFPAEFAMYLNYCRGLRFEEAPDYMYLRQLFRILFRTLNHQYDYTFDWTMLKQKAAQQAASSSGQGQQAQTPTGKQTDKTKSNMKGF
T5 sequence (Q96SW2 whole entry partner): as the sequence (Q96SW2 whole entry partner) above
T5 sequence (Q16531 whole entry partner): as the sequence (Q16531 whole entry partner) above
T5 sequence (P15170 whole entry): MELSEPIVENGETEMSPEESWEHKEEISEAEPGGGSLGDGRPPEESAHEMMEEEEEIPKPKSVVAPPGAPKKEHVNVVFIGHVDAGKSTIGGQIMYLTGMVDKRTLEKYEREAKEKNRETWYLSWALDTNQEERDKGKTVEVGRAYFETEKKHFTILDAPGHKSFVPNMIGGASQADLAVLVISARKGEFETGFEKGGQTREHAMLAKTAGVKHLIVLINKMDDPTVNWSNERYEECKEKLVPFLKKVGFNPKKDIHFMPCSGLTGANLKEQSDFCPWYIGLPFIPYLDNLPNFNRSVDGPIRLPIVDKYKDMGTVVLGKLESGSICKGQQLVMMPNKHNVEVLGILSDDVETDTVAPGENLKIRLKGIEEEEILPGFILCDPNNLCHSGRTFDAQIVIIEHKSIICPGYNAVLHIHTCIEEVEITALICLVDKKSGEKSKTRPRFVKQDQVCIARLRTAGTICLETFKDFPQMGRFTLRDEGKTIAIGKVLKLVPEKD
T6 sequence (Q96SW2 whole entry partner): as the sequence (Q96SW2 whole entry partner) above
T6 sequence (Q16531 whole entry partner): as the sequence (Q16531 whole entry partner) above
T6 sequence (Q9UKS7 whole entry): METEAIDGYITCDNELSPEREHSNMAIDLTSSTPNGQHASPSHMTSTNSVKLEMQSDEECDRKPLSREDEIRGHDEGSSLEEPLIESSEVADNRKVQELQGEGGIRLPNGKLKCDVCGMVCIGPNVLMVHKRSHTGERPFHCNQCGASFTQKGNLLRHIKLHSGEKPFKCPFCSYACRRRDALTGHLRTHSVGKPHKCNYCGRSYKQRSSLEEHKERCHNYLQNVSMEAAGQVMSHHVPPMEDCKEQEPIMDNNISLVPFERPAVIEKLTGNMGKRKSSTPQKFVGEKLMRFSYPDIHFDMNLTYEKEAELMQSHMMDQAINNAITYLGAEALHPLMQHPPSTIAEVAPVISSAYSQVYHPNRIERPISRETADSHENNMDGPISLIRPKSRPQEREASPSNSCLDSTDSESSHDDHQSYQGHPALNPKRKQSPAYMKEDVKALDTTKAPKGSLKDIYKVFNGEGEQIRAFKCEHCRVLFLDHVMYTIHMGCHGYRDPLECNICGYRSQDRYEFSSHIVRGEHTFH
T1 sequence (Q96SW2 whole entry partner): as the sequence (Q96SW2 whole entry partner) above
T1 sequence (Q16531 whole entry partner): as the sequence (Q16531 whole entry partner) above
T1 sequence (P15170 whole entry): as the sequence (P15170 whole entry) above
T4 sequence (Q96SW2 whole entry partner): as the sequence (Q96SW2 whole entry partner) above
T4 sequence (Q16531 whole entry partner): as the sequence (Q16531 whole entry partner) above
T4 sequence (P48729 whole entry): as the sequence (P48729 whole entry) above
T2 sequence (Q9UKT9 whole entry): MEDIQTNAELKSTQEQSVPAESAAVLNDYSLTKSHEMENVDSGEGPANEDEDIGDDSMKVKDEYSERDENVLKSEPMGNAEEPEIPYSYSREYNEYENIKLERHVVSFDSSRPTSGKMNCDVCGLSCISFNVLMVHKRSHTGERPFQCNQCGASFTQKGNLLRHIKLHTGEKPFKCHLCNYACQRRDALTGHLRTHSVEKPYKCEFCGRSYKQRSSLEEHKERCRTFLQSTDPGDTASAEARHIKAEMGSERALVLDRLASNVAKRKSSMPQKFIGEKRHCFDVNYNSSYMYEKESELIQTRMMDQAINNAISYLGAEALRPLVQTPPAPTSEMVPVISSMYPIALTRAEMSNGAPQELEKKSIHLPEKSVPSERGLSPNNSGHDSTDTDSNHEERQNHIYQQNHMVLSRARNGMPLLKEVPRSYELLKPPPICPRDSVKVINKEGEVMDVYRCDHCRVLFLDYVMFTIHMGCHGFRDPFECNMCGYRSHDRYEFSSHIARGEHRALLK
T2 sequence (Q96SW2 whole entry): as the sequence (Q96SW2 whole entry partner) above
T2 sequence (Q16531 whole entry partner): as the sequence (Q16531 whole entry partner) above
T3 sequence (Q13422 whole entry): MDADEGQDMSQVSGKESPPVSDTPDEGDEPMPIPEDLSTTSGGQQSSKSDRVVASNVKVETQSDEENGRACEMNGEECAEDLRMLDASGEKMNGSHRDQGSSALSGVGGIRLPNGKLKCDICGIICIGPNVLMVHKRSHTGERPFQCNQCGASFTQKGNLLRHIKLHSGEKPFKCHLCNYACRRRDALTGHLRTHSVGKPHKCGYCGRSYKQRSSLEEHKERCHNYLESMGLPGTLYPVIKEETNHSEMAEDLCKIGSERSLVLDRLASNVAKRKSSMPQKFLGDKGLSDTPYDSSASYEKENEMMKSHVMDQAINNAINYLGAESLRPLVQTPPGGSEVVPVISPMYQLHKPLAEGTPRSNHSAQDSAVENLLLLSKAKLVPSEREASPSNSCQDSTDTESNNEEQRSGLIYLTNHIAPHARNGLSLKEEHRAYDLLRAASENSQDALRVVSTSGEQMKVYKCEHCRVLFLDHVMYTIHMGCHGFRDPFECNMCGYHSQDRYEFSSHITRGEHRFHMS
T3 sequence (Q96SW2 whole entry): as the sequence (Q96SW2 whole entry partner) above
T3 sequence (Q16531 whole entry partner): as the sequence (Q16531 whole entry partner) above

degradation of endogenous GSPT1 (endogenous GSPT1)	degradation of endogenous IKZF3 (endogenous IKZF3)	degradation of endogenous IKZF1 (endogenous IKZF1)	degradation of endogenous CK1α (endogenous CK1α)	degradation effect on luminescence signals of GSPT1-HiBit (GSPT1-HiBiT)	effect on luminescence signals from IKZF2-HiBit (IKZF2-HiBiT)	degradation effect on luminescence signals of CK1α-HiBit (CK1α-HiBiT)	SMILES
minimal degradation effects	effectively induced the degradation	effectively induced the degradation	minimal degradation effects	minimal degradation effects	minimal inhibition	minimal degradation effects	CN1CCN(Cc2cccc(C(=O)NC3CCC(=O)NC3=O)c2)CC1 (centres unmarked) [MGD-A7, N-(2,6-dioxopiperidin-3-yl)-3-((4-methylpiperazin-1-yl)methyl)benzamide]
minimal degradation effects	effectively induced the degradation	effectively induced the degradation	minimal degradation effects	minimal degradation effects	minimal inhibition	minimal degradation effects	CN1CCN(Cc2cccc(C(=O)NC3CCC(=O)NC3=O)c2F)C(=O)C1 (centres unmarked) [MGD-C9, N-(2,6-dioxopiperidin-3-yl)-2-fluoro-3-((4-methyl-2-oxopiperazin-1-yl)methyl)benzamide]
